Entries after “also recorded” stand apart in the source; their conditions may differ.
Assays:
B16 melanoma = experiment: Treatment of established B16 skin tumors with MNAs; conditions: MNA once weekly for three weeks; for survival: untreated 100% mortality
Procedure: B16 skin tumors were established in normal mice by injection. Visible established cutaneous tumors were treated once weekly for three weeks with MNAs containing either doxorubicin alone, Poly(I:C) alone, or doxorubicin and Poly(I:C) incorporated into the same MNA. The doxorubicin dose chosen corresponds to an MNA dose that induces apoptosis in human skin without causing necrosis. Tumor growth and survival were measured regularly for the duration of the study.

epidermal cells = conditions: 5 mg/g of CMC, about 140 μg per array; 72 hours of exposure
Procedure: Cytoxan® was integrated at a concentration of 5 mg/g of CMC, enabling delivery of approximately about 140 μg per array. […] Living human skin organ cultures were used to assess the cytotoxicity of Cytoxan®. Cytoxan® was delivered by application of arrays to skin explants as we previously described. Arrays and residual material were removed 5 minutes after application, and after 72 hours of exposure, culture living skin explants were cryo-sectioned and fixed.

[1] = Dye release from MNAs inserted into 4% agar test-gels; type: physicochemical; conditions: dually loaded MNA
From the text: To illustrate the delivery of multiple drugs with distinct release kinetics, MNAs were fabricated to delivery two distinct cargos by distinct release kinetics. Specifically, MNAs were fabricated to release the marker Toluidine Blue in an initial burst, followed by a sustained release of the marker FD&C Red40. Dyes were directly loaded in the MNA scaffold matrix (in this case CMC) of the needle tips and in some cases a second dye, encapsulated in a sustained release polymer was layer directly below. MNAs were inserted into 4% agar test-gels and removed after 1 min.
Images of dye diffusion were collected at the indicated time points (FIG. 39A). As shown in FIGS. 39A-C, FD&C Red40 (FIG. 39A) and toluidine blue (FIG. 39B), tracer dyes were tip-loaded in MNAs for immediate release. Alternatively, MNAs were fabricated with toluidine blue tip-loaded and FD&C Red40 encapsulated in a sustained release polymer (FIG. 39C). MNAs were inserted into 4% agar test-gel and removed after 1 min. Images were collected at the indicated time-points. Tip-loaded cargos were rapidly released from the MNAs and dispersed progressively in the gel (FIG. 39A and B). […] Upper panels depict images of microneedles from MNAs before application. The middle images are the imprints of the arrays 1 minute after application and MNA removal. Lower panels depicted the indicated representative magnified images at the indicated time points.

[2] = tested on: OVA-specific CTL activity; experiment: OVA-specific CTL activity in vivo after CMC-microneedle array immunization; conditions: mice immunized on ears with pyramidal arrays, boosted one week later
[3] = MNA DNBS dose response, ear thickness increase and histology; type: in vivo, mouse; conditions: MNAs with 25 ng, 50 ng and 100 ng tested; ear thickness increase
Procedure: These figures illustrate an exemplary MNA DNBS dose response, by indicating an optimal lowest dose of hapten contained in MNAs capable of inducing effective skin acute and chronic inflammation. In particular, FIG. 51A charts MNA DNBS doses as a percentage of ear thickness increase. FIG. 51B provides histological detail of treated ear skin following the application of MNAs with the three different doses of DNBS (25 ng, 50 ng, and 100 ng).

NK1R [4] = target: T1, NK1R (Mus musculus, UniProt P30548); experiment: Histology of skin and skin draining lymph nodes of B6-WT mice sensitized with DNCB with or without SarSP; type: in vivo
T1 construct: from tissue
T1 sequence (P30548 whole entry): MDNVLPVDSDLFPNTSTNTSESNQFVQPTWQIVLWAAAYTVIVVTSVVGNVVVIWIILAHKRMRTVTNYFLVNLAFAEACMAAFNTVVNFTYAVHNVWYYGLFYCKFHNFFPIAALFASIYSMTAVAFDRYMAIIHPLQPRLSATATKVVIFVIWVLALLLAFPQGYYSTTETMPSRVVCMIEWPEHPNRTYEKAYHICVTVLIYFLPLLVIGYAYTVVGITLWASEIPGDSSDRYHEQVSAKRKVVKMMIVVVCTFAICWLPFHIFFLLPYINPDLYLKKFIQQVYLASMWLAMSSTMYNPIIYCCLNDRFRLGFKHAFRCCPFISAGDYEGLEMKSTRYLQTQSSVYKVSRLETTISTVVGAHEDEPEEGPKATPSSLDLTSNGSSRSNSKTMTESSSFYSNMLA
From the text: (A & C: H and E, 200×; Insets, 1,000×; B & D: TB, 200×; Insets 1,000×; NT refers to non-treated mice.)
The effect of different treatments in B6-WT mice was compared with n=6/experimental group.

NK1R [5] = target: T2, NK1R (Homo sapiens, UniProt P25103); experiment: Human mixed leukocyte cultures (MLC), skin DC as stimulators of allogeneic naive CD4 T cells, with SarSP; type: cell-based; conditions: SarSP added to MLC
T2 construct: adding SarSP to human mixed leukocyte cultures (MLC) using skin DC as stimulators of allogeneic naïve CD4 T cells; endogenous in cells; host or cells: human skin dendritic cells from skin explants, co-cultured with allogeneic T cells (MLC)
T2 sequence (P25103 whole entry): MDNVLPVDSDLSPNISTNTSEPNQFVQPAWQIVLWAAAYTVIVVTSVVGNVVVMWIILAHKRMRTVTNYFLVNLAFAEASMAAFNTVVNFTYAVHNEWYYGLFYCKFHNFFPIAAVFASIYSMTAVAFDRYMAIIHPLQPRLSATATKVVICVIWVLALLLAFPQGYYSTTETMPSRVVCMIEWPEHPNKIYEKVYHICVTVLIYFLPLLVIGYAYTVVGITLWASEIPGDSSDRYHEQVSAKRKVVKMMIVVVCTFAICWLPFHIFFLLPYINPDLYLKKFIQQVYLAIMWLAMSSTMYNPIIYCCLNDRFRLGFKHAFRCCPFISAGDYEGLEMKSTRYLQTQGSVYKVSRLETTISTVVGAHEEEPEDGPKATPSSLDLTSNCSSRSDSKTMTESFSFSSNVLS
From the text: FIGS. 42A and 42B show human skin DCs express functional NK1R. […] Conventional rigid MNA with pyramid geometry can suffer from limited skin penetration, and poor and unreliable cargo delivery capacity compared to the novel microneedle structures disclosed herein. For example, in some embodiments, the delivery systems disclosed herein integrate biologics into dissolvable carboxymethyl-cellulose (CMC) microneedles with obelisk geometries.

NK1R [6] = target: T1, NK1R; experiment: DTH reaction in mice sensitized with DNCB with NK1R agonist SarSP; type: in vivo; conditions: C57BL/6 (B6) mice sensitized with DNCB in the presence of SarSP (10^−9 M)
From the text: The effect of different treatments in B6-WT mice was compared with n=6/experimental group. […] The inflammatory infiltrate was composed of leukocytes including polimorphonuclear neutrophils (PMN) and eosinophils as shown in the inset of FIG. 45A.
Means±1SD of 6 mice/experimental group are illustrated, with three independent experiments performed.

**Q.** Which tumor growth (B16 melanoma) does the source give for `COc1cccc2c1C(=O)c1c(O)c3c(c(O)c1C2=O)C[C@@](O)(C(=O)CO)C[C@@H]3O[C@H]1C[C@H](N)[C@H](O)[C@H](C)O1` [doxorubicin] here?
**A.** slowed tumor growth

**Q.** What about the survival (B16 melanoma) of the same compound?
**A.** 30%

**Q.** For `O=P1(N(CCCl)CCCl)NCCCO1` (stereo not shown) [Cytoxan®, cyclophosphamide], which “apoptosis of epidermal cells (TUNEL)” value (epidermal cells) is on record?
**A.** extensive apoptosis of epidermal cells

**Q.** What does the source list for Poly(I:C)?
**A.** tumor growth (B16 melanoma): slowed tumor growth; survival (B16 melanoma): 50%

**Q.** For `Cc1cc2nc3ccc(N(C)C)cc3[s+]c2cc1N.[Cl-]` [Toluidine Blue], which “release of tip-loaded dye” value ([1]; dye in CMC in the needle tip) is on record?
**A.** released in an initial burst

**Q.** For “particulate OVA: particulate ovalbumin, model antigen, in CMC microneedle arrays”, which “OVA-specific CTL activity in vivo” value [2] is on record?
**A.** Significant OVA-specific CTL activity

**Q.** With “soluble OVA: soluble ovalbumin, model antigen, in CMC microneedle arrays” as the compound, how does the “OVA-specific CTL activity in vivo” value [2] read?
**A.** Significant OVA-specific CTL activity

**Q.** Which “release of encapsulated dye” value ([1]; dye encapsulated in sustained release polymer) does the source give for `COc1cc(S(=O)(=O)[O-])c(C)cc1N=Nc1c(O)ccc2cc(S(=O)(=O)[O-])ccc12.[Na+].[Na+]` [FD&C Red40] here?
**A.** released slowly over an extended time period

**Q.** And the “period of release from depot” value ([1]; dye in underlying layer of sustained release polymer)?
**A.** 10 days

**Q.** Which “optimal, lowest dose inducing skin acute and chronic inflammation” value [3] does the source give for `O=[N+]([O-])c1ccc(S(=O)(=O)O)c([N+](=O)[O-])c1` [DNBS, 2,4-Dinitrobenzenesulfonic acid] here?
**A.** 50 ng

**Q.** With Sar^9 Met(O2)^11—SP [SarSP] as the compound, how does the “MC activation and degranulation in skin” value (NK1R [4]; B6-WT mice) read?
**A.** triggered MC activation and degranulation

**Q.** What about the “inflammatory response in skin” value (NK1R [4]; agent administered alone, B6-WT mice) of the same compound?
**A.** did not induce inflammatory response

**Q.** What about the “inflammatory infiltrate in skin draining lymph node” value (NK1R [4]; co-administration with DNCB) of the same compound?
**A.** significantly increases the inflammatory infiltrate

**Q.** And the “inflammatory response in skin” value (NK1R [4]; co-administration with DNCB, B6-WT mice)?
**A.** significantly increased the number of inflammatory cells; also recorded: dramatically increased the magnitude of the inflammatory response and tissue damage

**Q.** And the “number of MC in draining lymph nodes” value (NK1R [4]; mouse, in vivo)?
**A.** induced an increased number of MC

**Q.** What about the IFN-γ secretion (NK1R [5]) of the same compound?
**A.** significantly augmented

**Q.** And the Tcell proliferation (NK1R [5])?
**A.** significantly augmented

**Q.** What about the DTH reactions (NK1R [6]) of the same compound?
**A.** significantly increased DTH reactions

— patent US11744889B2, “Skin microenvironment targeted delivery for promoting immune and other responses” (University of Pittsburgh—Of the Commonwealth System of …, priority 2016, dated 2023)
